Test results: ChEMBL document CHEMBL1201862, “PubChem BioAssay data set” (2004)
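How tested: cells in 96-well plates exposed to compound for 48 hours at five concentrations. GI50 marks 50% less growth.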 Activity calls are given as the source filed them. Cut-off read from the data, not from the text of the source: active = GI50 up to about 1.1 µM and inactive = higher.

Key:
Assay in all cases: inhibition of tumour cell growth, NCI panel, 48 h
[1] = system: M14
[2] = system: UO-31
[3] = system: COLO 205
[4] = system: SN12C
[5] = system: NCI/ADR-RES
[6] = system: A549
[7] = system: SK-OV-3
[8] = system: 786-0
[9] = system: SNB-75
[10] = system: MDA-MB-231
[11] = system: OVCAR-3
[12] = system: EKVX
[13] = system: NCI-H460
[14] = system: MOLT-4
[15] = system: RPMI-8226
[16] = system: UACC-62
[17] = system: RXF 393
[18] = system: KM12
[19] = system: NCI-H522

Row | Structure (SMILES) | GI50 [1] | GI50 [2] | GI50 [3] | GI50 [4] | GI50 [5] | GI50 [6] | GI50 [7] | GI50 [8] | GI50 [9] | GI50 [10] | GI50 [11] | GI50 [12] | GI50 [13] | GI50 [14] | GI50 [15] | GI50 [16] | GI50 [17] | GI50 [18] | GI50 [19]
1 | CN(C)CCN(C)P12(Oc3ccccc3O1)Oc1c(Cl)c(Cl)c(Cl)c(Cl)c1O2 | 50.5 µM (inactive) | 39.1 µM (inactive) | > 100 µM (inactive) | 42.6 µM (inactive) | 35.8 µM (inactive) | 46.9 µM (inactive) | > 100 µM (inactive) | 54.6 µM (inactive) | 13.7 µM (inactive) | 69.8 µM (inactive) | 27.9 µM (inactive) | 99.8 µM (inactive) | 37.2 µM (inactive) | 34 µM (inactive) | 29.1 µM (inactive) | 33.3 µM (inactive) |  |  | 
2 | O=C(Nc1ccc([N+](=O)[O-])cc1)C1C(=O)C(=O)N(c2ccc([N+](=O)[O-])cc2)C1=O (stereo not drawn) | 16.2 µM (inactive) | 78 µM (inactive) | 35.8 µM (inactive) | > 100 µM (inactive) |  | > 100 µM (inactive) | > 100 µM (inactive) | 67.1 µM (inactive) | > 100 µM (inactive) |  | > 100 µM (inactive) | > 100 µM (inactive) | 34.5 µM (inactive) | > 100 µM (inactive) | 46.5 µM (inactive) | 2.72 µM (inactive) | > 100 µM (inactive) | > 100 µM (inactive) | 55.8 µM (inactive)
3 | CCOC(=O)CCC(NC(=O)c1ccc(NCc2ccc3nc(OC)c(OC)nc3c2)c2ccccc12)C(=O)OCC (stereo not drawn) | > 100 µM (inactive) | > 100 µM (inactive) | > 100 µM (inactive) | > 100 µM (inactive) | > 100 µM (inactive) | > 100 µM (inactive) | 31 µM (inactive) | 26.2 µM (inactive) | 38.8 µM (inactive) | 71.1 µM (inactive) | 94.2 µM (inactive) | > 100 µM (inactive) | > 100 µM (inactive) | > 100 µM (inactive) |  | 73.8 µM (inactive) | 31 µM (inactive) | > 100 µM (inactive) | > 100 µM (inactive)
4 | CC1CCC(=O)NCCCCC(=O)N1 (stereo not drawn) | > 100 µM (inactive) | > 100 µM (inactive) | > 100 µM (inactive) | > 100 µM (inactive) |  | > 100 µM (inactive) | > 100 µM (inactive) | > 100 µM (inactive) | 43.3 µM (inactive) |  | > 100 µM (inactive) | > 100 µM (inactive) | > 100 µM (inactive) | > 100 µM (inactive) | > 100 µM (inactive) | > 100 µM (inactive) | > 100 µM (inactive) | > 100 µM (inactive) | > 100 µM (inactive)
5 | CCCCN(CCCC)CC(O)c1cc(-c2ccc(C(F)(F)F)cc2)nc(-c2ccc(C(F)(F)F)cc2)c1 (stereo not drawn) | 91.4 µM (inactive) | 95.7 µM (inactive) | 79.8 µM (inactive) | 26.1 µM (inactive) | > 100 µM (inactive) |  | > 100 µM (inactive) | 61.1 µM (inactive) | 13.8 µM (inactive) | 15.7 µM (inactive) | 94.8 µM (inactive) | 39.4 µM (inactive) | > 100 µM (inactive) | > 100 µM (inactive) | 39.9 µM (inactive) | > 100 µM (inactive) |  |  | 75.3 µM (inactive)
6 | CCN(CC)CCn1c(C(C)(C)C)nc2ccccc21 | > 100 µM (inactive) | > 100 µM (inactive) | > 100 µM (inactive) | > 100 µM (inactive) | > 100 µM (inactive) | > 100 µM (inactive) | > 100 µM (inactive) | 18.7 µM (inactive) | > 100 µM (inactive) |  | > 100 µM (inactive) | > 100 µM (inactive) | > 100 µM (inactive) | > 100 µM (inactive) | > 100 µM (inactive) | > 100 µM (inactive) | > 100 µM (inactive) | > 100 µM (inactive) | 38.6 µM (inactive)
7 | O=C(c1cc2ccccc2o1)N(Cc1ccccc1)c1ccccc1 | 18.6 µM (inactive) | 22.9 µM (inactive) | 20.4 µM (inactive) | 18 µM (inactive) |  | 32.6 µM (inactive) | 33.2 µM (inactive) | 20.2 µM (inactive) | 28.3 µM (inactive) |  | 20.3 µM (inactive) | 27 µM (inactive) | 26.9 µM (inactive) | 16.6 µM (inactive) | 18.2 µM (inactive) | 14.4 µM (inactive) | 26 µM (inactive) | 20.6 µM (inactive) | 16.4 µM (inactive)
8 | COC(=O)CCC(=O)Nc1cc(C)ccc1C | > 100 µM (inactive) | > 100 µM (inactive) | > 100 µM (inactive) | > 100 µM (inactive) |  | > 100 µM (inactive) | > 100 µM (inactive) | > 100 µM (inactive) | > 100 µM (inactive) |  | > 100 µM (inactive) | > 100 µM (inactive) | > 100 µM (inactive) | > 100 µM (inactive) | > 100 µM (inactive) | > 100 µM (inactive) | > 100 µM (inactive) | > 100 µM (inactive) | > 100 µM (inactive)
9 | COc1ccc(-c2cc(-c3ccc(Nc4ccnc5cc(Cl)ccc45)cc3)nc(N)c2C#N)c2ccccc12 | > 100 µM (inactive) | > 100 µM (inactive) | > 100 µM (inactive) | > 100 µM (inactive) | > 100 µM (inactive) | > 100 µM (inactive) |  | > 100 µM (inactive) | > 100 µM (inactive) | > 100 µM (inactive) |  | > 100 µM (inactive) | > 100 µM (inactive) | > 100 µM (inactive) | > 100 µM (inactive) | > 100 µM (inactive) | > 100 µM (inactive) | > 100 µM (inactive) | > 100 µM (inactive)
10 | Cc1c(C)c2ccc(O)cc2[nH]c1=O | > 100 µM (inactive) | > 100 µM (inactive) | > 100 µM (inactive) | > 100 µM (inactive) | > 100 µM (inactive) | > 100 µM (inactive) |  | > 100 µM (inactive) | 98.9 µM (inactive) | > 100 µM (inactive) | > 100 µM (inactive) | > 100 µM (inactive) | > 100 µM (inactive) | > 100 µM (inactive) | > 100 µM (inactive) | > 100 µM (inactive) | > 100 µM (inactive) | > 100 µM (inactive) | 
11 | O=C1Nc2ccccc2/C1=N/Nc1nc(-c2ccc(Cl)c(Cl)c2)cs1 | 78.5 µM (inactive) | 7.01 µM (inactive) | 29.9 µM (inactive) | > 100 µM (inactive) | > 100 µM (inactive) | > 100 µM (inactive) | > 100 µM (inactive) | > 100 µM (inactive) | 49.3 µM (inactive) | > 100 µM (inactive) | 4.75 µM (inactive) | > 100 µM (inactive) | 17.6 µM (inactive) | 16 µM (inactive) |  |  |  | 29.6 µM (inactive) | 
12 | CCN(CCCl)CCNc1c2ccccc2nc2ccc(OC)cc12 | 1.18 µM (inactive) | 1.44 µM (inactive) | 0.136 µM (active) | 0.548 µM (active) | 1.35 µM (inactive) | 0.557 µM (active) | 1.35 µM (inactive) | 0.254 µM (active) | 0.966 µM (active) |  | 1.38 µM (inactive) | 1.27 µM (inactive) | 0.273 µM (active) | 0.0426 µM (active) | 0.0977 µM (active) | 0.551 µM (active) | 0.54 µM (active) | 0.603 µM (active) | 0.33 µM (active)
